Numbers after ± are expanded uncertainties.
Assay: activity coefficient (dimensionless); of the first substance listed, at infinite dilution; xn = mol fraction of the nth substance listed
Details: 313.15 K; 101 kPa; Liquid; Chromatography; x1 = 0

| Structure (SMILES) | activity coefficient |
| --- | --- |
| C=CC(O)CCCCC (configuration not stated) [1-octen-3-ol] + O | 2160 ± 230 |
| O=Cc1ccccc1 [benzaldehyde] + O | 570 ± 60 |
| CCC(=O)C(C)=O [2,3-pentanedione] + O | 160 ± 17 |

Second part, the compound after the results:

| activity coefficient | Structure (SMILES) |
| --- | --- |
| 71 ± 7 | CCOC(C)=O [ethyl acetate] + O |
| 179 ± 19 | CC(C)CC=O [3-methylbutanal] + O |
| 49 ± 5 | C=CC(O)CC (configuration not stated) [1-penten-3-ol] + O |
| 601 ± 63 | CCCCCC=O [hexanal] + O |
